We go through eleven compounds from ChEMBL document CHEMBL1201862, “PubChem BioAssay data set” (2004).

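Cells were grown in 96-well plates and exposed to each compound for 48 hours at five concentrations; endpoints were interpolated linearly between bracketing concentrations, or set to the highest concentration if not reached. GI50 is the concentration that inhibits growth by half.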 The source made the active and inactive calls. Cut-off read from the data, not from the text of the source: active = GI50 up to about 1.1 µM and inactive = higher.

Among the test systems are M14; MCF7; HCT-116; OVCAR-5; MDA-MB-435; NCI-H522; COLO 205; HCT-15; IGROV-1; NCI/ADR-RES; U-251; SF-268; SK-MEL-28; SK-OV-3; NCI-H23; RXF 393; UO-31; OVCAR-4; K562; Malme-3M.
Holding throughout (experiment): growth of human tumour cells (NCI), 48 h

On to `[N-]=[N+]=C1C(=O)c2ccccc2-c2ccccc21`, for which the GI50 with M14 was 44.6 µM (inactive); in the experiment on MCF7, 25.9 µM (inactive); in the experiment on HCT-116 it was 28.1 µM (inactive); with OVCAR-5, 34.1 µM (inactive); in the experiment on MDA-MB-435 it was 40.7 µM (inactive); in the experiment on NCI-H522, 24.4 µM (inactive). For the same compound, the GI50 is 32.1 µM (inactive) in the experiment with COLO 205; 29 µM with HCT-15; 33 µM (inactive) in the experiment on IGROV-1; 25.6 µM (inactive) with NCI/ADR-RES; 31.3 µM (inactive) in the experiment on U-251; 33.3 µM (inactive) with SF-268. The GI50 with SK-MEL-28 is 60.8 µM (inactive); in the experiment on SK-OV-3, 39.5 µM (inactive); in the experiment on NCI-H23, 35 µM (inactive); in the experiment on RXF 393, 15.6 µM (inactive); in the experiment with UO-31, 27.2 µM (inactive); with OVCAR-4 it was 35.8 µM (inactive). In the experiment with K562, the GI50 was 36.6 µM (inactive).
Regarding `COc1ccc2c(c1)C(=O)c1ccccc1C2`, the GI50 with M14 is 93.8 µM (inactive); with MCF7, 64 µM (inactive); with HCT-116, 36 µM (inactive); with OVCAR-5 it was > 100 µM (inactive); with MDA-MB-435 it was 41.7 µM (inactive); in the experiment with NCI-H522 it was 47.4 µM (inactive). Also, the GI50 in the experiment with COLO 205 is 54.5 µM (inactive); in the experiment on HCT-15, 60.7 µM; in the experiment with IGROV-1, 38.8 µM (inactive); with NCI/ADR-RES, 59.6 µM (inactive); with U-251, 45.2 µM (inactive); with SF-268 it was 70.5 µM (inactive). Moreover, the GI50 with SK-MEL-28 is > 100 µM (inactive); with SK-OV-3, 33.5 µM (inactive); in the experiment with NCI-H23, 96.4 µM (inactive); with RXF 393, 13.5 µM (inactive); with UO-31, > 100 µM (inactive); in the experiment with OVCAR-4, 42.7 µM (inactive). Besides, the GI50 with K562 is 40.3 µM (inactive).
With `CCOC(CN(C)C(=S)Nc1cccc2ccccc12)OCC`, the GI50 in the experiment with Malme-3M, in the experiment on M14, in the experiment with MCF7, in the experiment on HCT-116, with MDA-MB-435 and in the experiment on NCI-H522 was > 10 µM (inactive) in each case. Besides, the GI50 was > 10 µM (inactive) with COLO 205; more than 10 µM with HCT-15; > 10 µM (inactive) with IGROV-1; > 10 µM (inactive) in the experiment with NCI/ADR-RES; > 10 µM (inactive) in the experiment on U-251; > 10 µM (inactive) in the experiment on SF-268. Besides, the GI50 with SK-MEL-28, in the experiment with SK-OV-3, with NCI-H23, in the experiment on RXF 393, in the experiment on UO-31 and with OVCAR-4 was > 10 µM (inactive) each time. Also, in the experiment with K562, the GI50 was > 10 µM (inactive).
Regarding `CC(C)=CCC\C(C)=C/C=C/C(C)=C\C=C\C(C)=C/C=C/C=C(C)\C=C\C=C(C)/C=C/C=C(/C)CCC=C(C)C`, the GI50 in the experiment with Malme-3M, with M14, in the experiment with MCF7, in the experiment with HCT-116, in the experiment on OVCAR-5 and with MDA-MB-435 was > 100 µM (inactive) in each case. In addition, the GI50 in the experiment with COLO 205 was > 100 µM (inactive); in the experiment with HCT-15 it was more than 100 µM; with IGROV-1, > 100 µM (inactive); with NCI/ADR-RES, > 100 µM (inactive); in the experiment with SF-268, > 100 µM (inactive); with SK-MEL-28 it was > 100 µM (inactive). Also, the GI50 in the experiment with SK-OV-3, with RXF 393, in the experiment on UO-31, in the experiment with OVCAR-4 and with K562 was > 100 µM (inactive) each time.
`CCOC(=O)c1ccc(Nc2cnc3cc(C(F)(F)F)ccc3n2)cc1`: the GI50 in the experiment on Malme-3M was > 100 µM (inactive); in the experiment on MCF7 it was > 10 µM (inactive); in the experiment with HCT-116, 63 µM (inactive); with OVCAR-5, > 100 µM (inactive); in the experiment with MDA-MB-435, > 100 µM (inactive); in the experiment with NCI-H522, > 100 µM (inactive). The GI50 with COLO 205 is > 100 µM (inactive); with HCT-15, more than 100 µM; with IGROV-1, > 100 µM (inactive); in the experiment on NCI/ADR-RES, > 100 µM (inactive); in the experiment with U-251 it was > 100 µM (inactive); in the experiment on SF-268, > 100 µM (inactive). The GI50 with SK-MEL-28 is 85.9 µM (inactive); in the experiment with SK-OV-3, > 100 µM (inactive); in the experiment on NCI-H23, > 100 µM (inactive); in the experiment with RXF 393, > 10 µM (inactive); in the experiment on UO-31, > 100 µM (inactive); with OVCAR-4, > 100 µM (inactive). For the same compound, the GI50 with K562 was > 100 µM (inactive).
With `O=c1[nH]ncc2[nH]c3c4ccccc4ccc3c12`, the GI50 was 19.6 µM (inactive) with Malme-3M; 94.6 µM (inactive) in the experiment with M14; 18.4 µM (inactive) in the experiment on MCF7; 42.2 µM (inactive) with HCT-116; 39.9 µM (inactive) in the experiment on OVCAR-5; 18 µM (inactive) in the experiment on MDA-MB-435. Moreover, the GI50 was 19 µM (inactive) in the experiment on NCI-H522; 24.2 µM (inactive) in the experiment with COLO 205; 12.4 µM in the experiment with HCT-15; > 100 µM (inactive) with NCI/ADR-RES; 24.8 µM (inactive) with U-251; 37.2 µM (inactive) in the experiment on SF-268. The GI50 was 31.1 µM (inactive) with SK-OV-3; 46.2 µM (inactive) in the experiment with RXF 393; 25.5 µM (inactive) in the experiment with UO-31; 44.5 µM (inactive) in the experiment with OVCAR-4; 45.7 µM (inactive) in the experiment on K562.
As for `O=C(Nc1cnc(O)nc1O)C(Cl)Cl`, the GI50 with Malme-3M, in the experiment with M14, in the experiment on MCF7, in the experiment on HCT-116, with MDA-MB-435 and in the experiment with NCI-H522 was > 100 µM (inactive) in each case. In addition, the GI50 with COLO 205 is > 100 µM (inactive); with HCT-15 it was more than 100 µM; in the experiment on IGROV-1, > 100 µM (inactive); with NCI/ADR-RES, > 100 µM (inactive); in the experiment on U-251, > 100 µM (inactive); with SK-MEL-28, > 100 µM (inactive). Moreover, the GI50 with SK-OV-3, in the experiment on NCI-H23, in the experiment on RXF 393, with UO-31, with OVCAR-4 and in the experiment with K562 was > 100 µM (inactive) throughout.
On to `CC(/C=C/C(O)=C1/C(=O)CNC1=O)=C\[C@@H](C)[C@H]1O[C@@]2(C)O[C@H](C(=O)[C@@H]3O[C@@]32C)[C@@H]1C`, for which the GI50 was 18.1 µM (inactive) in the experiment on Malme-3M; 31.8 µM (inactive) with M14; 19.7 µM (inactive) with MCF7; 18.9 µM (inactive) in the experiment on HCT-116; 18.3 µM (inactive) with OVCAR-5; 28.2 µM (inactive) with MDA-MB-435. Moreover, the GI50 is 20.7 µM (inactive) in the experiment with COLO 205; 18.4 µM with HCT-15; 20.4 µM (inactive) in the experiment with IGROV-1; 26.6 µM (inactive) in the experiment on NCI/ADR-RES; 19.5 µM (inactive) in the experiment with U-251; 21.1 µM (inactive) in the experiment on SF-268. Also, the GI50 was 17.6 µM (inactive) in the experiment with SK-MEL-28; 21.5 µM (inactive) in the experiment with SK-OV-3; 23.5 µM (inactive) with NCI-H23; 1.14 µM (inactive) in the experiment on RXF 393; 13.8 µM (inactive) with UO-31; 19.8 µM (inactive) in the experiment with K562.
Take `COc1cc(/C=C/C(=O)OC2C(O)C3CC(OC(=O)c4cc(OC)c(OC)c(OC)c4)CC2N3C)cc(OC)c1OC` (stereo unspecified): the GI50 in the experiment with M14 was > 50 µM (inactive); in the experiment on MCF7, 23 µM (inactive); in the experiment on HCT-116, 20.7 µM (inactive); in the experiment on OVCAR-5, > 50 µM (inactive); in the experiment on MDA-MB-435, 23.6 µM (inactive); in the experiment on NCI-H522 it was 19.5 µM (inactive). Besides, the GI50 was 12.3 µM (inactive) in the experiment with COLO 205; 28.1 µM with HCT-15; 0.43 µM (active) in the experiment with IGROV-1; 13.7 µM (inactive) with NCI/ADR-RES; 40.5 µM (inactive) in the experiment on U-251; > 50 µM (inactive) in the experiment with SF-268. In addition, the GI50 in the experiment on SK-OV-3 is 21.8 µM (inactive); in the experiment on NCI-H23, > 50 µM (inactive); in the experiment with RXF 393, 15.9 µM (inactive); with UO-31 it was 10.4 µM (inactive); in the experiment with OVCAR-4 it was > 50 µM (inactive); in the experiment with K562 it was > 50 µM (inactive).
For `CC(C)NC(=O)OCc1c2c(n(C)c1COC(=O)NC(C)C)-c1cc(Cl)c(Cl)cc1CC2`, the GI50 in the experiment with Malme-3M is 49.3 µM (inactive); in the experiment on M14, 27.9 µM (inactive); in the experiment on MCF7, 15.8 µM (inactive); in the experiment with HCT-116 it was 24.8 µM (inactive); with OVCAR-5, 25.8 µM (inactive); with MDA-MB-435 it was 33.7 µM (inactive). For the same compound, the GI50 in the experiment with COLO 205 is 31.3 µM (inactive); in the experiment with HCT-15, 23.8 µM; in the experiment on IGROV-1 it was 20.3 µM (inactive); with NCI/ADR-RES, 33.4 µM (inactive); with U-251, 18.2 µM (inactive); in the experiment on SF-268 it was 69.2 µM (inactive). The GI50 in the experiment on SK-MEL-28 is 64.1 µM (inactive); in the experiment with SK-OV-3 it was 33.7 µM (inactive); with NCI-H23, 22.1 µM (inactive); with RXF 393, 21.7 µM (inactive); with UO-31, 27 µM (inactive); with OVCAR-4 it was 64.6 µM (inactive). For the same compound, in the experiment on K562, the GI50 was 16.6 µM (inactive).
On to `O=C(c1cccs1)N1CCCN(C(=O)c2cccs2)C1=S`, for which the GI50 in the experiment with Malme-3M, in the experiment with M14, in the experiment with MCF7, in the experiment on HCT-116, with OVCAR-5 and in the experiment with MDA-MB-435 was > 100 µM (inactive) each time. The GI50 in the experiment on COLO 205 was > 100 µM (inactive); in the experiment on HCT-15, more than 100 µM; in the experiment with IGROV-1 it was > 100 µM (inactive); with NCI/ADR-RES it was > 100 µM (inactive); with U-251 it was > 100 µM (inactive); in the experiment with SF-268 it was > 100 µM (inactive). Moreover, the GI50 is > 100 µM (inactive) in the experiment on SK-MEL-28; > 100 µM (inactive) in the experiment on SK-OV-3; > 100 µM (inactive) in the experiment with NCI-H23; 36.1 µM (inactive) in the experiment with RXF 393; > 100 µM (inactive) in the experiment on UO-31; > 100 µM (inactive) in the experiment with K562.
